In the supplement of paper PMC10307832:

Legend:
Experiment in all cases: relative viability (nuclei count vs DMSO), 5 days (fraction); higher = more cells survive
kb NB 142-70 + OSI-027 = compound: C1CSC2=C(C(=O)N1)SC3=C2C=C(C=C3)O [kb NB 142-70] + COc1cccc2cc(-c3nc([C@H]4CC[C@H](C(=O)O)CC4)n4ncnc(N)c34)[nH]c12 [OSI-027] (partner 0.5 µM)
Summary of the method: (§1)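 Relative viability divides the nuclei count in treated wells by that in vehicle wells. Lung cancer cell lines were seeded in 1536-well plates, dosed by pin tool the next day, and fixed and stained after 5 days in one step with final 0.05% Triton X-100, 1% formaldehyde and 1 ug/ml Hoechst. Dosing was a single drug or a fixed anchor-drug dose plus five library-drug doses (not always all listed) in √10 steps, and values are medians of duplicate plates imaged at 4×.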

[1] = compound: NCC(=O)Nc1ccc(-n2nc(C(F)(F)F)cc2-c2ccc3c(ccc4ccccc43)c2)cc1 + CC1(C)CCC(c2ccc(Cl)cc2)=C(CN2CCN(c3ccc(C(=O)NS(=O)(=O)c4ccc(N[C@H](CCN5CCOCC5)CSc5ccccc5)c(S(=O)(=O)C(F)(F)F)c4)cc3)CC2)C1 [Navitoclax] (partner 0.5 µM)
Summary of the method: as §1

[2] = compound: C1CSC2=C(C(=O)N1)SC3=C2C=C(C=C3)O [kb NB 142-70] + C[C@@H](Oc1cc(-c2cnn(C3CCNCC3)c2)cnc1N)c1c(Cl)ccc(F)c1Cl [Crizotinib] (partner 1 µM)
Summary of the method: as §1

[3] = compound: C1CSC2=C(C(=O)N1)SC3=C2C=C(C=C3)O [kb NB 142-70] + CS(=O)(=O)N1CCN(Cc2cc3nc(-c4cccc5[nH]ncc45)nc(N4CCOCC4)c3s2)CC1 [Pictilisib] (partner 1 µM)
Summary of the method: as §1

[4] = compound: C1CSC2=C(C(=O)N1)SC3=C2C=C(C=C3)O [kb NB 142-70] + Cc1cc(Nc2cc(N3CCN(C)CC3)nc(Sc3ccc(NC(=O)C4CC4)cc3)n2)n[nH]1 [Tozasertib] (partner 0.1 µM)
Summary of the method: as §1

[5] = compound: C1CSC2=C(C(=O)N1)SC3=C2C=C(C=C3)O [kb NB 142-70] + C[C@]1(O)C[C@@H](c2nc(-c3ccc4ccc(-c5ccccc5)nc4c3)c3c(N)nccn32)C1 [Linsitinib] (partner 1 µM)
Summary of the method: as §1

Row | Cell Line | relative viability (kb NB 142-70 + OSI-027; first compound 0.1 µM) | relative viability (kb NB 142-70 + OSI-027; first compound 1 µM) | relative viability (kb NB 142-70 + OSI-027; first compound 3.162 µM) | relative viability ([1]; first compound 0.02 µM) | relative viability ([1]; first compound 0.06325 µM) | relative viability ([1]; first compound 0.2 µM) | relative viability ([1]; first compound 0.6325 µM) | relative viability ([1]; first compound 2 µM) | relative viability ([2]; first compound 0.1 µM) | relative viability ([2]; first compound 1 µM) | relative viability ([2]; first compound 3.162 µM) | relative viability ([3]; first compound 0.1 µM) | relative viability ([3]; first compound 1 µM) | relative viability ([3]; first compound 3.162 µM) | relative viability ([4]; first compound 0.1 µM) | relative viability ([4]; first compound 1 µM) | relative viability ([4]; first compound 3.162 µM) | relative viability ([5]; first compound 0.1 µM) | relative viability ([5]; first compound 1 µM) | relative viability ([5]; first compound 3.162 µM)
1 | NCI-H2085 | 0.878 | 0.876 | 0.388 | 1.06 | 1.16 | 1.28 | 1.17 | 1.08 | 0.754 | 0.814 | 0.663 | 0.486 | 0.53 | 0.398 | 0.796 | 0.825 | 0.661 | 0.807 | 0.515 | 0.599
2 | NCI-H2087 | 0.532 | 0.677 | 0.35 | 0.849 | 1.11 | 0.939 | 0.969 | 1.03 | 0.562 | 0.903 | 0.868 | 0.905 | 0.75 | 0.576 | 0.267 | 0.201 | 0.141 | 1.05 | 0.956 | 0.915
3 | NCI-H2126 | 0.791 | 0.629 | 0.674 | 0.866 | 0.865 | 0.851 | 0.876 | 0.852 | 1.04 | 1.06 | 0.983 | 0.519 | 0.479 | 0.515 | 0.805 | 0.858 | 0.823 | 0.702 | 0.729 | 0.681
4 | NCI-H2228 | 0.575 | 0.483 | 0.317 | 1.14 | 1.16 | 0.918 | 0.976 | 0.809 | 0.519 | 0.561 | 0.27 | 0.494 | 0.225 | 0.183 | 0.254 | 0.217 | 0.146 | 0.525 | 0.872 | 0.629
5 | NCI-H2347 | 0.461 | 0.416 | 0.384 | 0.771 | 0.878 | 1 | 0.906 | 0.833 | 0.685 | 0.707 | 0.594 | 0.874 | 0.659 | 0.324 | 0.69 | 0.589 | 0.506 | 0.975 | 1.03 | 1.03
6 | NCI-H2405 | 0.652 | 0.615 | 0.546 | 0.848 | 1 | 0.941 | 0.913 | 0.969 | 0.796 | 0.885 | 0.717 | 0.378 | 0.379 | 0.382 | 0.785 | 0.695 | 0.652 | 0.969 | 0.834 | 0.641
7 | NCI-H3122 | 0.922 | 0.919 | 0.726 | 1.04 | 1.01 | 1.03 | 1.01 | 0.984 | 0.268 | 0.242 | 0.192 | 0.578 | 0.649 | 0.551 | 0.366 | 0.459 | 0.165 | 1.03 | 1.01 | 0.924
8 | PC-3 [JPC-3] | 0.763 | 0.835 | 0.737 | 0.765 | 0.842 | 0.718 | 0.84 | 0.79 | 0.985 | 1.05 | 0.916 | 0.769 | 0.768 | 0.672 | 0.923 | 0.94 | 0.773 | 0.971 | 0.98 | 0.881
9 | PC-14 | 0.754 | 0.962 | 0.609 | 1.1 | 0.979 | 1.15 | 0.917 | 1.05 | 0.933 | 0.909 | 0.92 | 0.679 | 0.795 | 0.58 | 0.569 | 0.612 | 0.531 | 0.982 | 0.968 | 0.955
10 | RERF-LC-KJ | 0.566 | 0.643 | 0.593 | 1.04 | 1.24 | 1.08 | 0.715 | 0.842 | 0.819 | 0.93 | 0.924 | 0.504 | 0.519 | 0.374 | 0.445 | 0.486 | 0.445 | 0.918 | 0.957 | 0.923
11 | SK-LU-1 | 0.355 | 0.305 | 0.219 | 0.852 | 0.784 | 1.27 | 0.909 | 0.878 | 0.861 | 0.691 | 0.45 | 0.608 | 0.484 | 0.324 | 0.339 | 0.282 | 0.182 | 1.26 | 0.986 | 0.557
12 | SK-MES-1 | 0.653 | 0.676 | 0.27 | 1.31 | 1.2 | 1.29 | 1.2 | 1.16 | 1.01 | 1.02 | 0.72 | 0.333 | 0.325 | 0.235 | 0.867 | 0.85 | 0.221 | 1.07 | 1.15 | 0.722
13 | SW 1573 | 0.618 | 0.47 | 0.266 | 1.03 | 0.969 | 0.867 | 0.905 | 0.942 | 0.832 | 0.815 | 0.526 | 0.49 | 0.337 | 0.26 | 0.153 | 0.182 | 0.146 | 0.744 | 0.693 | 0.351
